# Reference: patent US20070021391A1, “Preventive/remedy for urinary disturbance” (priority 2003, published 2007)
# Entries after “also recorded” stand apart in the source; their conditions may differ. Read-outs that look alike come from different tables or passages of the source.
# Columns and labels:
# [1] = test system: Hartley male guinea pig, urethane anesthesia; experiment: Urine flow dynamic parameters with oxybutynin and compound A (Example 6); format: in vivo; conditions: for Bladder volume, proportion for value before administration (%) / Maximum urine flow rate, proportion for value before administration (%) / Urination efficiency, proportion for value before administration (%): iv + oxybutynin 1 mg/kg, iv
# Description: A Hartley male guinea pig with a body weight of about 500 g (Japan SLC Hamamatsu) was used. After urethane anesthesia (1.4 g/kg, i.p.), the medial incision of the lower abdomen was carried out, and the bladder was exposed. Two injection needles (20G) with which a polyethylene tube (PE-100, Becton Dickinson, Franklin Lakes, N.J., USA) was linked were inserted in the bladder, and one needle was used for injection of saline and another needle was used for measurement of the inner pressure of the bladder. Further, a cannula (PE-10, Becton Dickinson) for injection of phenylephrine was inserted in right common jugular vein. […] The amount of urine eliminated was measured by an electronic weighing machine (GX-400, A&D, Tokyo) and the inner pressure of the bladder was measured using a pressure transducer (AP641G, NIPPON KODEN Corporation, Tokyo). The analogue data of the weight of urine and the inner pressure of the bladder were inputted in a multi-channel data analyzer (MP-100A-CE, Biopac systems), and analyzed by a proprietary software (Acqknowledge 3.7.1, Biopac systems). The sampling interval of data was 0.1 sec and a low pass filter was applied to the data of discharge amount and urine flow rate at 0.5 Hz in order to remove noise. A delay time of 0.1 sec in weighing the urine was rectified, and the urine flow rate was determined by differentiating the value of discharge amount. The dynamic state parameter of the flow of urine below was measured. A bladder volume, the maximum urine flow rate, urination efficiency (=amount of urination/bladder volume). The effect of oxybutynin was analyzed by the paired t calibration and the concomitant use effect of the compound A was analyzed by Dunnett calibration.
# [2] = molecular target: T1, acetylcholine esterase of human erythrocyte origin (Homo sapiens, UniProt P22303); experiment: biochemical; format: biochemical
# T1 construct: acetylcholine esterase of human erythrocyte origin; purchased Sigma, St. Louis, Mo., USA; host or cells: human erythrocytes
# T1 sequence (P22303 32-617 isoform P22303-2 limits assumed): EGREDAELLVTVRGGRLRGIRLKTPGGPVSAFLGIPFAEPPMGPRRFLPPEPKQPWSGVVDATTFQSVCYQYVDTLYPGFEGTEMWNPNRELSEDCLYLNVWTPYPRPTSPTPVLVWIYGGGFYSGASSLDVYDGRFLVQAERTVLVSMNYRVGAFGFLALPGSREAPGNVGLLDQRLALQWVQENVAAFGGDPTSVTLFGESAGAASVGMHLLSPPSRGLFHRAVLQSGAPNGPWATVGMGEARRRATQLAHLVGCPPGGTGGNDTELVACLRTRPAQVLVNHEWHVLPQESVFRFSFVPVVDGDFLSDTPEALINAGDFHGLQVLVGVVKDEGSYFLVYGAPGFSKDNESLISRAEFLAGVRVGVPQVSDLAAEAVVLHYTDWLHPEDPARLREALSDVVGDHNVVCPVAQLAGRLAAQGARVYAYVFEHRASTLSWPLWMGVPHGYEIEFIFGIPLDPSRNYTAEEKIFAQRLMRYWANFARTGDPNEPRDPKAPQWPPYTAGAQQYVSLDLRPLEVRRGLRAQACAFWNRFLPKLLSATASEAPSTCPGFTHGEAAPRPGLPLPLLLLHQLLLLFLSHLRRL
# Description: (§2) The AChE inhibitory activity and the BuChE inhibitory activity were determined by a thiocholine method (Ellman method) using acetylcholine esterase of human erythrocyte origin (Sigma, St. Louis, Mo., USA) and butyrylcholine esterase of human serum origin (Biogenesis, Poole, UK). Acetylcholine esterase or butyrylcholine esterase was diluted to a concentration of 0.2 IU/mL with 80 mM tris-HCL buffers (pH=7.4) containing 0.3% bovine serum albumin (BSA) to prepare an enzyme preparation. […] The stock solution was diluted at 3-fold common ratio with 10% DMSO and 80 mM tris-HCl buffers containing 0.3% BSA. On a 96 wells microplate, 20 μL of the drug solution with a given concentration, 30 μL of 80 mM tris-HCl buffers containing 0.3% BSA and 50 μL of the enzyme preparation were distributed, and incubated at room temperature for 1 hour after shaking for 10 seconds. […] For the respective drugs, the test was repeated twice. The % of control of the increase in light absorption was calculated at each concentration with respect to the respective drugs. % of control=increase in light absorption of drug/increase in light absorption of control×100
# male SD rat = experiment: Acetylcholine inductive salivation in rat (Example 5); format: in vivo; conditions: for Amount of saliva secreted: rat
# Description: (§1) A male SD rat (CLEA Japan Inc.) with a body weight of about 400 g or a Hartley male guinea pig with a body weight of 400 to 500 g (Japan SLC) were used. After urethane anesthesia, sanitary cotton preliminarily weighed was inserted in the mouth of the animal and acetylcholine was intravenously administrated. After 5 minutes, the sanitary cotton was taken out to be weighed and the amount of saliva secreted was measured. The drug was intravenously administrated at 10 min before the administration of acetylcholine. The effect of oxybutynin was analyzed by paired t calibration and the concomitant use effect of the compound A was analyzed by William calibration.
# [3] = test system: Hartley male guinea pig, urethane anesthesia; experiment: Pressure/flow study using guinea pig (Example 3); format: in vivo; conditions: for Amount of urination, proportion for value before administration (%) / At maximum urine flow rate Inner pressure of bladder, proportion for value before administration (%) / Maximum urine flow rate, proportion for value before administration (%): i.v.; for Bladder compliance, proportion for value before administration (%) / Bladder volume, proportion for value before administration (%): iv
# Description: A Hartley male guinea pig of 5 weeks old (Japan SLC) was used. After urethane anesthesia, the medial incision of the lower abdomen was carried out, and the bladder was exposed. Two injection needles (20G) with which a polyethylene tube (PE-100) was linked were inserted in the bladder, and one needle was used for injection of saline and another needle was used for measurement of the inner pressure of the bladder. The injection of saline was continuously carried out at a rate of 18 mL/h using a syringe pump (SP-100S, JMS, and Hiroshima), the injection was stopped after intermittent urination was confirmed 3 times at minimum, and the saline in the bladder was removed by suction. Injection was started again, and the injection was stopped when the raise of the inner pressure of the bladder just before urination was confirmed. The amount of urine excreted was measured by an electronic weighing machine (HX-400, A&D, and Tokyo) and the inner pressure of the bladder was measured using a pressure transducer (AP641G, NIPPON KODEN Corporation). The analogue data of the weight of urine and the inner pressure of the bladder were inputted in a multi-channel data analyzer (MP-100A-CE, Biopac systems), and analyzed by a proprietary software (Acqknowledge, Biopac systems). The sampling interval of data was 0.1 second and a low pass filter was applied to the data of discharge amount and urine flow rate at 0.5 Hz in order to remove noise. A delay time of 0.1 second in weighing the urine was rectified, and the urine flow rate was determined by differentiating the value of discharge amount. After a value before twice administration of the drug was measured, the drugs (the compound A, distigmine, neostigigmine and bethanechol) were intravenously administrated. Saline in the bladder was extracted after 10 minutes of administration of the compound A, bethanechol and neostigigmine and after 30 minutes of administration of distigmine, and injection was started again to measure data. The drugs were dissolved with distilled water so that administration volume was 0.5 mL/kg. Parameters (bladder volume, the amount of urination, the maximum urine flow rate, the inner pressure of the bladder at the maximum urine flow, bladder compliance) below were measured. The bladder compliance was calculated from intersection point (the threshold of bladder volume, threshold pressure) which was obtained by determining regression line in the respective curves of the inner pressure of the bladder at collection of urine and urinary reflex. The change rate before and after administration of the drug was calculated for the respective parameters and the calibration of significant difference was carried out by a solvent administration group and Dunnett calibration (Table 6 and Table 7).
# [4] = molecular target: T2, butyrylcholine esterase of human serum origin (Homo sapiens, UniProt P06276); experiment: biochemical; format: biochemical
# T2 construct: butyrylcholine esterase of human serum origin; purchased Biogenesis, Poole, UK; host or cells: human serum
# T2 sequence (P06276 29-602): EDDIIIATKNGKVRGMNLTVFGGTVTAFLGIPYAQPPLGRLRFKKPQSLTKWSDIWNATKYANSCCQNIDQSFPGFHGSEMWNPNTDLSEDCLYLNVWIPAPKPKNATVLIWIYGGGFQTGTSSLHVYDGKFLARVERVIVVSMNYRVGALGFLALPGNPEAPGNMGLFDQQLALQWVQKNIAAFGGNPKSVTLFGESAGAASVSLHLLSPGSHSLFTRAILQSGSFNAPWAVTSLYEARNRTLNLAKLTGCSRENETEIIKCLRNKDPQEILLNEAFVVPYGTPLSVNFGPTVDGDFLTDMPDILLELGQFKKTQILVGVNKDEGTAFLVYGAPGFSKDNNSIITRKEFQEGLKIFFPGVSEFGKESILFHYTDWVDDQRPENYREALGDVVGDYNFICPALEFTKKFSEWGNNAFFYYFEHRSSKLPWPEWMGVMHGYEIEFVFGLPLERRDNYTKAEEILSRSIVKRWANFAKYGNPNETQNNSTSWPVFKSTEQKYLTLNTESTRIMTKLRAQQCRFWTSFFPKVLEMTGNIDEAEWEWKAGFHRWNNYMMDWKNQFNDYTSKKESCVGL
# Description: as §2
# Hartley male guinea pig = experiment: Acetylcholine inductive salivation in guinea pig (Example 5); format: in vivo
# Description: as §1
# bladder muscle = test system: bladder muscle; set-up: species or system guinea pig
# Butyrylcholine esterase = Butyrylcholine esterase (Rattus norvegicus, UniProt Q9JKC1); conditions: cited from earlier work
# Chain of Butyrylcholine esterase (Q9JKC1 24-597): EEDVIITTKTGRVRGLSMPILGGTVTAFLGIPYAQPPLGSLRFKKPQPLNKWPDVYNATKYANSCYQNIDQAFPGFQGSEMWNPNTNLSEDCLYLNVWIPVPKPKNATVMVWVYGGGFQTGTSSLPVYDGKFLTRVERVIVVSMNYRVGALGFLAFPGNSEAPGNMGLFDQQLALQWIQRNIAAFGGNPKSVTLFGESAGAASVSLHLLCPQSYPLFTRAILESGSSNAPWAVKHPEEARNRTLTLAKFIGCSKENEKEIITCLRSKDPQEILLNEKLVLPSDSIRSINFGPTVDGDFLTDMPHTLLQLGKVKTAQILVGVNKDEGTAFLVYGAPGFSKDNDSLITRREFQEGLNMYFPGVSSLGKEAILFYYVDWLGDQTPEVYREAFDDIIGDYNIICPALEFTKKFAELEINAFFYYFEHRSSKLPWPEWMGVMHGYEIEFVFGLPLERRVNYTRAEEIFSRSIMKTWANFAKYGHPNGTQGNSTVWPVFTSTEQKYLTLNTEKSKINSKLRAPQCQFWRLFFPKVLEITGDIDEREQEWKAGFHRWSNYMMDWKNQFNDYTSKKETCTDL
smiles,measurement,setting,value
"O=C(CCC1CCN(Cc2cccc(F)c2)CC1)c1cc2c3c(c1)CCN3C(=O)CC2 [Compound A, 8-[3-[1-[(3-fluorophenyl)methyl]-4-piperidinyl]-1-oxopropyl]-1,2,5,6-tetrahydro-4H-pyrrolo[3,2,1-ij]quinolin-4-one]","Bladder volume, proportion for value before administration (%)",[1]; Compound A 0.003 mg/kg,21.07 ± 4.65%
same,"Maximum urine flow rate, proportion for value before administration (%)",[1]; Compound A 0.003 mg/kg,−34.88 ± 8.22%
same,"Urination efficiency, proportion for value before administration (%)",[1]; Compound A 0.003 mg/kg,−61.67 ± 7.22%
same,"Bladder volume, proportion for value before administration (%)",[1]; Compound A 0.01 mg/kg,24.73 ± 7.05%
same,"Maximum urine flow rate, proportion for value before administration (%)",[1]; Compound A 0.01 mg/kg,−9.04 ± 5.94 %
same,"Urination efficiency, proportion for value before administration (%)",[1]; Compound A 0.01 mg/kg,−30.23 ± 10.48 %
same,"action on bladder volume, maximum urine flow rate and urination efficiency","[1]; oxybutynin 1 mg/kg, compound A 0.003, 0.01 mg/kg with oxybutynin",acted antagonistically against the lowering of the maximum urine flow rate and urination efficiency but did not influence the increase of bladder volume
same,Acetylcholine esterase selective inhibitory activity,[2],≥ 6700 fold
same,inhibition of the activity of human acetylcholine esterase,[2],inhibited the activity of human acetylcholine esterase
same,Selectivity b/a,[2]; BuChE IC50/AChE IC50 (Table 2),>6700
same,IC50,"[2]; mean value of twice tests, read-out: Acetylcholine esterase IC50",1.5 nM
same,action on acetylcholine-induced secretion of saliva,male SD rat; rat and guinea pig (Tables 9 and 10),significantly antagonized
same,Amount of saliva secreted,male SD rat; Compound A 0.001 mg/kg + oxybutynin 0.1 mg/kg + acetylcholine 1 mg/kg,0.22 ± 0.02 g
same,Amount of saliva secreted,male SD rat; Compound A 0.003 mg/kg + oxybutynin 0.1 mg/kg + acetylcholine 1 mg/kg,0.26 ± 0.02 g
same,Amount of saliva secreted,male SD rat; Compound A 0.01 mg/kg + oxybutynin 0.1 mg/kg + acetylcholine 1 mg/kg,0.49 ± 0.03 g
same,"Amount of urination, proportion for value before administration (%)",[3]; 0.003 mg/kg,150.2 ± 10.0 %
same,"At maximum urine flow rate Inner pressure of bladder, proportion for value before administration (%)",[3]; 0.003 mg/kg,117.5 ± 6.2%
same,"Maximum urine flow rate, proportion for value before administration (%)",[3]; 0.003 mg/kg,112.1 ± 9.7 %
same,"Bladder compliance, proportion for value before administration (%)",[3]; 0.003 mg/kg,75.2 ± 4.8%
same,"Bladder volume, proportion for value before administration (%)",[3]; 0.003 mg/kg,94.6 ± 5.8%
same,"Amount of urination, proportion for value before administration (%)",[3]; 0.01 mg/kg,165.2 ± 18.2 %
same,"At maximum urine flow rate Inner pressure of bladder, proportion for value before administration (%)",[3]; 0.01 mg/kg,110.9 ± 6.0%
same,"Maximum urine flow rate, proportion for value before administration (%)",[3]; 0.01 mg/kg,124.4 ± 10.3 %
same,"Bladder compliance, proportion for value before administration (%)",[3]; 0.01 mg/kg,82.6 ± 2.6%
same,"Bladder volume, proportion for value before administration (%)",[3]; 0.01 mg/kg,101.7 ± 5.0%
same,"Amount of urination, proportion for value before administration (%)",[3]; 0.03 mg/kg,164.0 ± 13.4 %
same,"At maximum urine flow rate Inner pressure of bladder, proportion for value before administration (%)",[3]; 0.03 mg/kg,116.9 ± 8.4%
same,"Maximum urine flow rate, proportion for value before administration (%)",[3]; 0.03 mg/kg,133.5 ± 15.3 %
same,"Bladder compliance, proportion for value before administration (%)",[3]; 0.03 mg/kg,95.9 ± 18.0%
same,"Bladder volume, proportion for value before administration (%)",[3]; 0.03 mg/kg,117.2 ± 9.0 %
same,change of the parameters at urination and at collection of urine (text),[3]; intravenous administration,"increased significantly the amount of urination and the maximum urine flow rate at 0.003 mg/kg or more; also recorded: the increase of the bladder volume was confirmed at 0.03 mg/kg, and did not influence the bladder compliance"
same,inhibitory activity for human butyrylcholine esterase,[4],did not show inhibitory activity for human butyrylcholine esterase up to 10^−5 M
same,IC50,"[4]; mean value of twice tests, read-out: Butyrylcholine esterase IC50",> 10000 nM
same,Amount of saliva secreted,Hartley male guinea pig; Compound A 0.003 mg/kg + oxybutynin 1 mg/kg + acetylcholine 1 mg/kg,0.17 ± 0.03 g
same,Amount of saliva secreted,Hartley male guinea pig; Compound A 0.010 mg/kg + oxybutynin 1 mg/kg + acetylcholine 1 mg/kg,0.27 ± 0.02 g
same,Tension (%),"bladder muscle; 0.003 μM, 30 minutes, change of basic tension, 100 mM KCl contraction = 100%",−0.55 ± 0.60%
same,Tension (%),"bladder muscle; 0.01 μM, 30 minutes, change of basic tension, 100 mM KCl contraction = 100%",−0.26 ± 0.38%
same,Tension (%),"bladder muscle; 0.03 μM, 30 minutes, change of basic tension, 100 mM KCl contraction = 100%",0.13 ± 0.80%
same,Tension (%),"bladder muscle; 0.1 μM, 30 minutes, change of basic tension, 100 mM KCl contraction = 100%",−0.74 ± 0.60%
same,Tension (%),bladder muscle; Table 5: Compound A 0.1 μM with iso-OMPA 10 μM,1.96 ± 0.87 %
same,Tension (%),bladder muscle; Table 5: Compound A 0.1 μM with iso-OMPA 100 μM,5.43 ± 1.17 %
same,Tension (%),"bladder muscle; Table 5: Compound A 0.1 μM, iso-OMPA 0 μM",−0.47 ± 0.17%
same,effect on basic tension,bladder muscle; compound A used in combination with iso-OMPA,significant increase in the basic tension was confirmed
same,effect on basic tension,bladder muscle; drug alone,did not influence the basic tension
CNC(=O)Oc1ccc2c(c1)[C@]1(C)CCN(C)[C@@H]1N2C [Physostigmine],IC50,"Butyrylcholine esterase; Literature 4, read-out: Butyrylcholine esterase inhibitory activity (IC50)",16 nM
same,IC50,"Butyrylcholine esterase; Literature 6, read-out: Butyrylcholine esterase inhibitory activity (IC50)",15 nM
